Key:
CDK8/CycC = target: T1, CDK8/CycC (Homo sapiens, UniProt P49336); assay: Radiometric protein kinase assay (33PanQinase Activity Assay, ProQinase); type: biochemical; details: 1.0 μM ATP, 1.0 μg/50 μL substrate RBER-IRStide, duplicate measurements, read-out: CDK8 Kinase inhibition IC50
T1 construct: purchased ProQinase GmbH, Freiburg, Germany
Description: The kinase activity of CDK8/CycC was measured using a radiometric protein kinase assay (33PanQinase® Activity Assay) by ProQinase GmbH, Freiburg, Germany, with the protocols shown at www.proqinase.com/sites/default/files/public/uploads/WildtypeProfiler/radiometric_assay_v05_2012_manual.pdf. IC50 determination (8.3 nM with 1.0 μM ATP and 1.0 μg/50 μL of substrate RBER-IRStide) was performed as duplicate measurements and calculated using Quattro Workflow V3.1.1 (Quattro Research GmbH, Germany). Apparent inhibition constants (Ki) values were calculated from Km (ATP) and IC50 values for the respective kinases.

MV-4-11 = assay: Cell viability assay (resazurin, leukemia cell lines), 72 h growth inhibition; type: cell-based; details: Homo sapiens, MV4-11, MV-4-11 cells
Excerpt: Compounds from Example 1 may be subjected to a standard MTT (3-(4,5-dimethylthiazol-2-yl)-2,5-diphenyltetrazolium bromide) and resazurin assays on solid tumour cell lines and leukemia cell lines, respectively, as previously reported (Wang S et al., J Med Chem 47:1662-1675, 2004 and Diab S e al. CheMedChem 9:962-972, 2014). Compound concentrations required to inhibit 50% of cell growth (GI50) can be calculated using non-linear regression analysis.

T1 sequence (P49336 whole entry): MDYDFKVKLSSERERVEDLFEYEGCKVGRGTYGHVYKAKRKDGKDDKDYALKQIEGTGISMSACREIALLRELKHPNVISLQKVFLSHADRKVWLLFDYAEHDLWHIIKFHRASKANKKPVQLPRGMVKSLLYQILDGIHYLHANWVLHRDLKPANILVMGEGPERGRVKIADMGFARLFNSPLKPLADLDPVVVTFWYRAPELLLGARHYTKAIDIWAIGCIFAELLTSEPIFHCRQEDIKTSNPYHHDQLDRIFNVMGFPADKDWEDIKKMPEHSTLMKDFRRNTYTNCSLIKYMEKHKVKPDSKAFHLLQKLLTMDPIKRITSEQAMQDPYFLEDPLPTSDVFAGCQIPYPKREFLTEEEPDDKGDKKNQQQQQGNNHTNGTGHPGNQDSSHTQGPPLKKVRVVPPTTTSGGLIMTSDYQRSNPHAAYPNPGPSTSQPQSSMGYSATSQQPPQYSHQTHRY
T1 sequence (P24863 whole entry partner): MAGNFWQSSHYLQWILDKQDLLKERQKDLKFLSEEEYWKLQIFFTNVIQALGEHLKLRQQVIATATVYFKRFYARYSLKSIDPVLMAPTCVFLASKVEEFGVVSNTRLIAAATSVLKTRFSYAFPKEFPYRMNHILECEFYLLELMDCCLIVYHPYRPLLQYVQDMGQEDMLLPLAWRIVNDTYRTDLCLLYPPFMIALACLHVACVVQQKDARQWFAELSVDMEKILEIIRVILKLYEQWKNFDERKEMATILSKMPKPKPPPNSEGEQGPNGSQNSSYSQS

Row | SMILES | IC50 (CDK8/CycC) [nM] | GI50 (MV-4-11) [nM]
1 | CNc1nccc(-c2sc(NC(=O)Nc3ccccc3C(F)(F)F)nc2C)n1 [Compound 2, 1-(4-Methyl-5-(2-(methylamino)-pyrimidin-4-yl)thiazol-2-yl)-3-(2-(trifluoromethyl)phenyl)urea] | 1360 | 
2 | CNc1nccc(-c2sc(NC(=O)Nc3ccc(F)cc3C)nc2C)n1 [Compound 6, 1-(4-Fluoro-2-methylphenyl)-3-(4-methyl-5-(2-(methylamino)-pyrimidin-4-yl)thiazol-2-yl)urea] | 233 | 
3 | CNc1nccc(-c2sc(NC(=O)Nc3ccc(F)cc3C(F)(F)F)nc2C)n1 [Compound 7, 1-(4-fluoro-2-(trifluoromethyl)-phenyl)-3-(4-methyl-5-(2-(methylamino)-pyrimidin-4-yl)thiazol-2-yl)urea] | 2300 | 
4 | CNc1nccc(-c2sc(NC(=O)Nc3ccc(C(F)(F)F)cc3C(F)(F)F)nc2C)n1 [Compound 8, 1-(2,4-Bis(trifluoromethyl)phenyl)-3-(4-methyl-5-(2-(methylamino)-pyrimidin-4-yl)thiazol-2-yl)urea] | 65 | 
5 | CNc1nccc(-c2sc(NC(=O)Nc3cccc(OC)c3)nc2C)n1 [Compound 16, 1-(3-Methoxyphenyl)-3-(4-methyl-5-(2-(methylamino)pyrimidin-4-yl)thiazol-2-yl)urea] | 9 | 2270 ± 680
6 | CNc1nccc(-c2sc(NC(=O)Nc3ccc(CN4CCN(C(C)C)CC4)c(C(F)(F)F)c3)nc2C)n1 [Compound 34, 1-(4-((4-Isopropylpiperazin-1-yl)methyl)-3-(trifluoromethyl)-phenyl)-3-(4-methyl-5-(2-(methylamino)pyrimidin-4-yl)thiazol-2-yl)urea] | 11 | < 1
7 | CNc1nccc(-c2sc(NC(=O)Nc3ccc(CN4CCN(C(C)=O)CC4)c(C(F)(F)F)c3)nc2C)n1 [Compound 35, 1-(4-((4-Acetylpiperazin-1-yl)methyl)-3-(trifluoromethyl)-phenyl)-3-(4-methyl-5-(2-(methylamino)pyrimidin-4-yl)thiazol-2-yl)urea] | 14 | 85
8 | CNc1nccc(-c2sc(NC(=O)Nc3ccc(CN4CCN(S(C)(=O)=O)CC4)c(C(F)(F)F)c3)nc2C)n1 [Compound 36, 1-(4-Methyl-5-(2-(methylamino)-pyrimidin-4-yl)thiazol-2-yl)-3-(4-((4-(methylsulfonyl)piperazin-1-yl)methyl)-3-(trifluoromethyl)-phenyl)urea] | 32 | 76 ± 10
9 | CNc1nccc(-c2sc(NC(=O)Nc3ccc(CN4CCCCC4)c(C(F)(F)F)c3)nc2C)n1 [Compound 38, 1-(4-Methyl-5-(2-(methylamino)-pyrimidin-4-yl)thiazol-2-yl)-3-(4-(piperidin-1-ylmethyl)-3-(trifluoromethyl)phenyl)urea] |  | 994 ± 130
10 | CNc1nccc(-c2sc(NC(=O)Nc3ccc(CN4CCC(N)CC4)c(C(F)(F)F)c3)nc2C)n1 [Compound 39, 1-(4-((4-Aminopiperidin-1-yl)methyl)-3-(trifluoromethyl)-phenyl)-3-(4-methyl-5-(2-(methylamino)pyrimidin-4-yl)thiazol-2-yl)urea] | 8 | 96
11 | CNc1nccc(-c2sc(NC(=O)Nc3ccc(CN4CCC(C)CC4)c(C(F)(F)F)c3)nc2C)n1 [Compound 40, 1-(4-Methyl-5-(2-(methylamino)-pyrimidin-4-yl)thiazol-2-yl)-3-(4-((4-methylpiperidin-1-yl)methyl)-3-(trifluoromethyl)phenyl)urea] | 34 | 2510 ± 390
12 | CNc1nccc(-c2sc(NC(=O)Nc3ccc(C(F)(F)F)cc3)nc2C)n1 [Compound 41, 1-(4-Methyl-5-(2-(methylamino)pyrimidin-4-yl)thiazol-2-yl)-3-(4-(trifluoromethyl)phenyl)urea] | 19 | 
13 | Cc1nc(NC(=O)Nc2ccc(CN3CCN(C)CC3)c(C(F)(F)F)c2)sc1-c1ccnc(N(C)C)n1 [Compound 49, 1-(5-(2-(Dimethylamino)pyrimidin-4-yl)-4-methylthiazol-2-yl)-3-(4-((4-methylpiperazin-1-yl)methyl)-3-(trifluoromethyl)phenyl)urea] | 82 | < 1
14 | CC(=O)N1CCN(Cc2ccc(NC(=O)Nc3nc(C)c(-c4ccnc(N(C)C)n4)s3)cc2C(F)(F)F)CC1 [Compound 50, 1-(4-((4-Acetylpiperazin-1-yl)methyl)-3-(trifluoromethyl)-phenyl)-3-(5-(2-(dimethylamino)-pyrimidin-4-yl)-4-methylthiazol-2-yl)urea] | 202 | 612 ± 60
15 | CCNc1nccc(-c2sc(NC(=O)Nc3ccc(CN4CCN(C)CC4)c(C(F)(F)F)c3)nc2C)n1 [Compound 52, 1-(5-(2-(Ethylamino)pyrimidin-4-yl)-4-methylthiazol-2-yl)-3-(4-((4-methylpiperazin-1-yl)methyl)-3-(trifluoromethyl)phenyl)urea] | 15 | < 1

Now from value to compound:

Row | IC50 (CDK8/CycC) [nM] | GI50 (MV-4-11) [nM] | SMILES
16 | 90 | < 1 | CCNc1nccc(-c2sc(NC(=O)Nc3ccc(CN4CCN(CC)CC4)c(C(F)(F)F)c3)nc2C)n1 [Compound 53, 1-(5-(2-(Ethylamino)pyrimidin-4-yl)-4-methylthiazol-2-yl)-3-(4-((4-ethylpiperazin-1-yl)methyl)-3-(trifluoromethyl)phenyl)urea]
17 | 16 | < 1 | CCNc1nccc(-c2sc(NC(=O)Nc3ccc(CN4CCN(C(C)C)CC4)c(C(F)(F)F)c3)nc2C)n1 [Compound 54, 1-(5-(2-(ethylamino)pyrimidin-4-yl)-4-methylthiazol-2-yl)-3-(4-((4-isopropylpiperazin-1-yl)methyl)-3-(trifluoromethyl)phenyl)urea]
18 | 35 | 214 ± 120 | CCNc1nccc(-c2sc(NC(=O)Nc3ccc(CN4CCN(C(C)=O)CC4)c(C(F)(F)F)c3)nc2C)n1 [Compound 55, 1-(4-((4-Acetylpiperazin-1-yl)methyl)-3-(trifluoromethyl)-phenyl)-3-(5-(2-(ethylamino)-pyrimidin-4-yl)-4-methylthiazol-2-yl)urea]
19 | 21 | 529 ± 120 | CCNc1nccc(-c2sc(NC(=O)Nc3ccc(CN4CCOCC4)c(C(F)(F)F)c3)nc2C)n1 [Compound 56, 1-(5-(2-(Ethylamino)pyrimidin-4-yl)-4-methylthiazol-2-yl)-3-(4-(morpholinomethyl)-3-(trifluoromethyl)phenyl)urea]
20 | 49 | 6160 ± 140 | CCNc1nccc(-c2sc(NC(=O)Nc3ccc(CN4CCC(C)CC4)c(C(F)(F)F)c3)nc2C)n1 [Compound 57, 1-(5-(2-(Ethylamino)pyrimidin-4-yl)-4-methylthiazol-2-yl)-3-(4-((4-methylpiperidin-1-yl)methyl)-3-(trifluoromethyl)phenyl)urea]
21 | 7 | 1 | CNc1nccc(-c2cnc(NC(=O)Nc3ccc(CN4CCN(C)CC4)c(C(F)(F)F)c3)s2)n1 [Compound 58, 1-(5-(2-(Methylamino)pyrimidin-4-yl)thiazol-2-yl)-3-(4-((4-methylpiperazin-1-yl)methyl)-3-(trifluoromethyl)phenyl)urea]
22 | 12 | 1 | CCN1CCN(Cc2ccc(NC(=O)Nc3ncc(-c4ccnc(NC)n4)s3)cc2C(F)(F)F)CC1 [Compound 59, 1-(4-((4-Ethylpiperazin-1-yl)methyl)-3-(trifluoromethyl)phenyl)-3-(5-(2-(methylamino)pyrimidin-4-yl)thiazol-2-yl)urea]
23 | 16 | 7 | CNc1nccc(-c2cnc(NC(=O)Nc3ccc(CN4CCN(C(C)C)CC4)c(C(F)(F)F)c3)s2)n1 [Compound 60, 1-(4-((4-Isopropylpiperazin-1-yl)methyl)-3-(trifluoromethyl)phenyl)-3-(5-(2-(methylamino)pyrimidin-4-yl)thiazol-2-yl)urea]
24 | 20 | 176 ± 40 | CNc1nccc(-c2cnc(NC(=O)Nc3ccc(CN4CCN(C(C)=O)CC4)c(C(F)(F)F)c3)s2)n1 [Compound 61, 1-(4-((4-Acetylpiperazin-1-yl)methyl)-3-(trifluoromethyl)phenyl)-3-(5-(2-(methylamino)pyrimidin-4-yl)thiazol-2-yl)urea]
25 | 14 | 1 | CCN1CCN(Cc2ccc(NC(=O)Nc3nc(C)c(-c4ccnc(N)n4)s3)cc2C(F)(F)F)CC1 [Compound 62, 1-(5-(2-Aminopyrimidin-4-yl)-4-methylthiazol-2-yl)-3-(4-((4-ethylpiperazin-1-yl)methyl)-3-(trifluoromethyl)phenyl)urea]
26 | 13 | 3 | Cc1nc(NC(=O)Nc2ccc(CN3CCN(C(C)C)CC3)c(C(F)(F)F)c2)sc1-c1ccnc(N)n1 [Compound 63, 1-(5-(2-Aminopyrimidin-4-yl)-4-methylthiazol-2-yl)-3-(4-((4-isopropylpiperazin-1-yl)methyl)-3-(trifluoromethyl)phenyl)urea]
27 | 15 | 275 ± 50 | Cc1nc(NC(=O)Nc2ccc(CN3CCOCC3)c(C(F)(F)F)c2)sc1-c1ccnc(N)n1 [Compound 64, 1-(5-(2-Aminopyrimidin-4-yl)-4-methylthiazol-2-yl)-3-(4-(morpholinomethyl)-3-(trifluoromethyl)phenyl)urea]

Reference: US11325900B2, “5-(pyrimidin-4-yl)thiazol-2-yl urea derivatives as therapeutic agents” (AUCENTRA HOLDINGS PTY LTD, priority 2018, dated 2022)
